In ChEMBL document CHEMBL1201862, “PubChem BioAssay data set” (2004):
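Five compound concentrations were applied to cells in 96-well plates for 48 hours; endpoints were derived by simple linear interpolation of the resulting dose-response curve. GI50: concentration for 50% inhibition of growth.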 Activity calls are given as the source filed them. Cut-off read from the data, not from the text of the source: active = GI50 up to about 1.1 µM and inactive = higher.

Legend:
Experiment in all cases: inhibition of tumour cell growth, NCI panel, 48 h
[1] = tested on: CCRF-CEM
[2] = tested on: UACC-62
[3] = tested on: MDA-N
[4] = tested on: SF-268
[5] = tested on: T47D
[6] = tested on: HCT-15
[7] = tested on: NCI-H460
[8] = tested on: SK-MEL-28
[9] = tested on: LOX IMVI
[10] = tested on: MOLT-4
[11] = tested on: TK-10
[12] = tested on: K562
[13] = tested on: SF-295
[14] = tested on: U-251
[15] = tested on: HCC 2998
[16] = tested on: UACC-257
[17] = tested on: HT-29
[18] = tested on: OVCAR-4

SMILES	GI50 [1]	GI50 [2]	GI50 [3]	GI50 [4]	GI50 [5]	GI50 [6] [µM]	GI50 [7]	GI50 [8]	GI50 [9]	GI50 [10]	GI50 [11]	GI50 [12]	GI50 [13]	GI50 [14]	GI50 [15]	GI50 [16]	GI50 [17]	GI50 [18]
Cc1cc(Cl)nc(NC(=O)CSc2ccc(Cl)cc2)n1	> 100 µM (inactive)	> 100 µM (inactive)	> 100 µM (inactive)	> 100 µM (inactive)	> 100 µM (inactive)	> 100	> 100 µM (inactive)	> 100 µM (inactive)	> 100 µM (inactive)	> 100 µM (inactive)	> 100 µM (inactive)	> 100 µM (inactive)	> 100 µM (inactive)	> 100 µM (inactive)	> 100 µM (inactive)	> 100 µM (inactive)	> 100 µM (inactive)	–
Cc1ccc(NC(=O)CC(=O)n2nc(C)c(/N=N/c3ccc(S(=O)(=O)CCOS(=O)(=O)O)cc3)c2C)cc1	> 100 µM (inactive)	> 100 µM (inactive)	> 100 µM (inactive)	> 100 µM (inactive)	> 100 µM (inactive)	> 10	> 100 µM (inactive)	> 100 µM (inactive)	> 100 µM (inactive)	> 100 µM (inactive)	> 100 µM (inactive)	> 100 µM (inactive)	97.1 µM (inactive)	> 100 µM (inactive)	> 100 µM (inactive)	80 µM (inactive)	> 100 µM (inactive)	–
Cc1cc(-c2nc3ccccc3s2)ccc1NC(=O)[C@H](C)N	7.89 µM (inactive)	14.8 µM (inactive)	10.4 µM (inactive)	18.3 µM (inactive)	0.128 µM (active)	14.1	10.1 µM (inactive)	15.7 µM (inactive)	5.06 µM (inactive)	18.2 µM (inactive)	–	6.95 µM (inactive)	15.3 µM (inactive)	15 µM (inactive)	10.6 µM (inactive)	16.9 µM (inactive)	14.4 µM (inactive)	12.2 µM (inactive)
C(CCc1nnc2c(n1)CCCC2)Cc1nnc2c(n1)CCCC2	> 100 µM (inactive)	> 100 µM (inactive)	88.3 µM (inactive)	> 100 µM (inactive)	> 100 µM (inactive)	> 100	> 100 µM (inactive)	> 100 µM (inactive)	> 100 µM (inactive)	> 100 µM (inactive)	> 100 µM (inactive)	> 100 µM (inactive)	> 100 µM (inactive)	> 100 µM (inactive)	> 100 µM (inactive)	–	> 100 µM (inactive)	> 100 µM (inactive)
C=C1C(=O)C2(C)OC2(C)C1C(=O)O (stereo not given)	> 100 µM (inactive)	> 100 µM (inactive)	> 100 µM (inactive)	> 100 µM (inactive)	> 100 µM (inactive)	> 100	> 100 µM (inactive)	> 100 µM (inactive)	> 100 µM (inactive)	–	> 100 µM (inactive)	> 100 µM (inactive)	> 100 µM (inactive)	> 100 µM (inactive)	> 100 µM (inactive)	> 100 µM (inactive)	> 100 µM (inactive)	> 100 µM (inactive)
FC(F)(Sc1ncccn1)c1nc2ccccc2o1	33.5 µM (inactive)	> 100 µM (inactive)	> 100 µM (inactive)	> 100 µM (inactive)	> 100 µM (inactive)	> 100	> 100 µM (inactive)	> 100 µM (inactive)	–	57.3 µM (inactive)	> 100 µM (inactive)	77.4 µM (inactive)	> 100 µM (inactive)	55.5 µM (inactive)	> 100 µM (inactive)	> 100 µM (inactive)	> 100 µM (inactive)	> 100 µM (inactive)
Cc1occc1C(=S)Nc1ccc(Cl)c(C(=O)OC(C(C)C)C(C)C)c1	7.16 µM (inactive)	10.8 µM (inactive)	12.1 µM (inactive)	18.5 µM (inactive)	4.49 µM (inactive)	13.1	13.6 µM (inactive)	12.5 µM (inactive)	13 µM (inactive)	5.32 µM (inactive)	15.3 µM (inactive)	–	5.47 µM (inactive)	10.8 µM (inactive)	9.23 µM (inactive)	4.85 µM (inactive)	14.1 µM (inactive)	14.7 µM (inactive)
N#CC12CC(C=O)=C(N)C1(C#N)CC(C=O)=C2N (stereo not given)	36.7 µM (inactive)	36.2 µM (inactive)	32.4 µM (inactive)	31.1 µM (inactive)	37.8 µM (inactive)	8.34	–	38.5 µM (inactive)	34.4 µM (inactive)	50.8 µM (inactive)	> 100 µM (inactive)	45.9 µM (inactive)	> 100 µM (inactive)	55.3 µM (inactive)	26.5 µM (inactive)	32.3 µM (inactive)	> 100 µM (inactive)	–
O=Cc1cc([N+](=O)[O-])no1	16.6 µM (inactive)	19.7 µM (inactive)	23.7 µM (inactive)	–	50.5 µM (inactive)	36.8	44.9 µM (inactive)	> 100 µM (inactive)	7.13 µM (inactive)	18.7 µM (inactive)	> 100 µM (inactive)	4.85 µM (inactive)	32.5 µM (inactive)	53.3 µM (inactive)	35.2 µM (inactive)	28.5 µM (inactive)	23 µM (inactive)	17.2 µM (inactive)
CCOC(=O)C(Cc1cn(C(C)=O)c2ccccc12)P(=O)(OCC)OCC (stereo not given)	–	–	> 100 µM (inactive)	–	> 100 µM (inactive)	> 100	55.1 µM (inactive)	> 100 µM (inactive)	> 100 µM (inactive)	> 100 µM (inactive)	> 100 µM (inactive)	> 100 µM (inactive)	> 100 µM (inactive)	> 100 µM (inactive)	> 100 µM (inactive)	> 100 µM (inactive)	> 100 µM (inactive)	> 100 µM (inactive)
O=C(C#CP(=O)(O)c1ccccc1)c1ccccc1	–	> 100 µM (inactive)	> 100 µM (inactive)	> 100 µM (inactive)	> 100 µM (inactive)	> 100	> 100 µM (inactive)	> 100 µM (inactive)	> 100 µM (inactive)	–	> 100 µM (inactive)	> 100 µM (inactive)	> 100 µM (inactive)	> 100 µM (inactive)	> 100 µM (inactive)	> 100 µM (inactive)	> 100 µM (inactive)	> 100 µM (inactive)
COC(=O)c1cc2c(c(C(=O)OC)c1)CCC2	50.8 µM (inactive)	–	> 100 µM (inactive)	> 100 µM (inactive)	63.5 µM (inactive)	63.1	> 100 µM (inactive)	> 100 µM (inactive)	82.4 µM (inactive)	37.2 µM (inactive)	> 100 µM (inactive)	59 µM (inactive)	> 100 µM (inactive)	> 100 µM (inactive)	> 100 µM (inactive)	> 100 µM (inactive)	40.6 µM (inactive)	> 100 µM (inactive)
